{
  "source": "patent US6617350B2",
  "about": "“Inhibitors of aspartyl protease” (priority 1999, dated 2003)",
  "key": {"HIV-1 (strain IIIB)": {"test_system": "HIV-1 (strain IIIB)", "assay": "microbe, parasite or virus in culture", "type": "cell-based", "conditions": "Human immunodeficiency virus 1, IIIB, MT4, Table 12; anti-viral potency in MT-4 cells; read-out: IC50"}, "HIV-1 protease": {"target": "HIV-1 protease (Human immunodeficiency virus type 1 group M subtype B, UniProt P04585)", "assay": "biochemical", "conditions": "Table 12; HIV-1 protease; read-out: Ki"}},
  "data": [
    {"smiles": "CC(C)(CCCN)CN(CC(O)C(Cc1ccccc1)NC(=O)OC1COC2OCCC12)S(=O)(=O)c1ccc2c(c1)OCCO2", "note": "[Compound 262, (3R,3aS,6aR)hexahydrofuro[2,3-b]furan-3-yl N-(1S,2R)-3-[(5-amino-2,2-dimethylpentyl)(2,3-dihydro-1,4-benzodioxin-6-ylsulfonyl)amino]-1-benzyl-2-hydroxypropylcarbamate]", "values": [
      {"measurement": "IC50", "setting": "HIV-1 (strain IIIB)", "result": "100 to 500", "unit": "nM"},
      {"measurement": "Ki", "setting": "HIV-1 protease", "result": "< 1", "unit": "nM"}
    ]},
    {"smiles": "CC(C)(CCCCN)CN(CC(O)C(Cc1ccccc1)NC(=O)OC1COC2OCCC12)S(=O)(=O)c1ccc2c(c1)OCCO2", "note": "[Compound 245, (3R,3aS,6aR)hexahydrofuro[2,3-b]furan-3-yl N-(1S,2R)-3-[(6-amino-2,2-dimethylhexyl)(2,3-dihydro-1,4-benzodioxin-6-ylsulfonyl)amino]-1-benzyl-2-hydroxypropylcarbamate]", "values": [
      {"measurement": "IC50", "setting": "HIV-1 (strain IIIB)", "result": "100 to 500", "unit": "nM"},
      {"measurement": "Ki", "setting": "HIV-1 protease", "result": "< 1", "unit": "nM"}
    ]},
    {"smiles": "COc1ccc(S(=O)(=O)N(C=C(C#N)C#N)C[C@@H](O)[C@H](Cc2ccccc2)NC(=O)OC(C)(C)C)cc1", "note": "[Compound 113]", "values": [
      {"measurement": "IC50", "setting": "HIV-1 (strain IIIB)", "result": "500 to 1000", "unit": "nM"},
      {"measurement": "Ki", "setting": "HIV-1 protease", "result": "10 to 100", "unit": "nM"}
    ]}
  ]
}
